We go through five molecules from PMC12751012, “Nanoscale Direct-to-Biology Optimization and Structural Insights into Selective S. aureus TrmD Inhibitors” (Journal of Medicinal Chemistry, 2025).

The term Kd denotes the equilibrium constant for the complex coming apart. Low values mean a tighter complex, high ones a looser complex. What is called IC50 is the midpoint of a concentration-inhibition curve. As a reminder, the CC50 is the concentration at which the toxic effect on the cells reaches its halfway point. A high value points to better tolerance by the cells.

Like-named read-outs stand apart in the source and are kept apart here. Where only a bound is given, the exact number is not on record here.

For one data set, the target named is T1, E. coli TrmD (Escherichia coli, UniProt P0A873).
T1 construct: made in house; host or cells: E. coli (the strain received with the pCA24N plasmid)
T1 sequence (P0A873 whole entry): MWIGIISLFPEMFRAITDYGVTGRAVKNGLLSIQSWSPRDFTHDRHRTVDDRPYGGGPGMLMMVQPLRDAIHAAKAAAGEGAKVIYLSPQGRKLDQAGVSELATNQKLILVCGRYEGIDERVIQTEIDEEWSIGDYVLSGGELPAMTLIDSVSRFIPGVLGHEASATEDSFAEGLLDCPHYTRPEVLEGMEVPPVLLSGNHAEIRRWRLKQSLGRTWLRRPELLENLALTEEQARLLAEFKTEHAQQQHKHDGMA
As to the kind of experiment: Fluorescence polarization (FP) assay, tracer 3 (Cy5TPD), E. coli TrmD. Type of data set: binding. The protocol:
Fluorescence polarization (FP) assays were performed as follows. The assays for H. influenzae TrmD have been described previously. All assays were conducted in technical triplicate using black 96-well half area plates. For the FP assays, a tracer (20 nM Cy5TPD for E. coli and H. influenzae TrmD, 10 nM tracer 4 for S. aureus TrmD) was mixed with the respective enzyme (2 μM E. coli TrmD, 2 μM H. influenzae TrmD, 500 nM S. aureus TrmD) in buffer (E. coli and H. influenzae TrmD: 50 mM HEPES, 500 mM NaCl, 5% Glycerol, pH 7.5, S. aureus TrmD: 40 mM Tris HCl, 100 mM NaCl, 10 mM MgCl2, 5% Glycerol, pH 7.5). The compounds were added in varying concentrations for K D-value determination. For K D-value determination of tracers, the enzyme concentration was varied, and no inhibitory compounds were added (DMSO < 0.5% for TrmDs). The Z-factor for tracer 4 was determined by measuring 48 replicates of the free tracer (positive controls, PC) and 48 replicates of a mixture of enzyme and tracer (negative controls, NC). The Z-factor is defined in terms of the means (μ) and standard deviations (σ) of the positive and negative controls and calculated as Z = 1–(3*(σnc + σpc)/(μnc–μpc)). Fluorescence polarization was measured using a Spark 10 M plate reader (Tecan) equipped with polarization filters and a monochromator setup (λex = 635 nm, λem = 680 nm). Polarization values (mP) were determined from polarization-specific parallel and orthogonal fluorescence intensities. K D-values were calculated in GraphPad Prism 8.0.1 using the four-parameter Hill equation: y(% tracer bound) = bottom + ([ligand]-slope) × (top–bottom)/([ligand]-slope + K Dslope).
Background: In fluorescence polarisation assays a small probe gives low polarisation when free and higher when bound to something large.

In the next data set the target is T2, S. aureus TrmD (Staphylococcus aureus, UniProt Q2FZ43).
T2 construct: made in house; host or cells: E. coli BL21
T2 sequence (Q2FZ43 1-245): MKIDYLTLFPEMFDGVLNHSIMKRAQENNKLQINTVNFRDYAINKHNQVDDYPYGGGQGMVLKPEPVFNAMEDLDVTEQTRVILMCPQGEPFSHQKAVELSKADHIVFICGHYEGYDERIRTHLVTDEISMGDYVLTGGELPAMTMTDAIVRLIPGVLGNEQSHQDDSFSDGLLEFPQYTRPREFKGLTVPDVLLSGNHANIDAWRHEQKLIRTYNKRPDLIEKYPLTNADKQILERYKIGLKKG
The data set is described as follows: Aptamer-based MTase enzyme inhibition assay. The class given is biochemical. The protocol: For the determination of S. aureus TrmD IC50-values, a split aptamer assay according to Nidoieva et al. was employed. The assay was performed in 40 mM Tris HCl, 100 mM NaCl, 10 mM MgCl2, 5% Glycerol, pH 7.5. Enzyme reaction mixtures contained synthetic tRNA^LeuCAG substrate (synthetic tRNA^Leu: 5′-[…]-3′, Genscript, final concentration: 2 μM), S. aureus TrmD (final concentration: 100 nM), SAM (New England Biolabs, final concentration: 2 μM), and the test compounds in varying concentrations (3% DMSO, final volume 10 μL). Pure DMSO was used as a mock treatment reaction control. The assay was carried out in triplicate in black 384-well plates (Greiner). Enzyme reactions were quenched by the addition of 1 μL SDS (3%) after an incubation time of 60 min at room temperature.

A short description of data set [1]: Cell Titer Glo cell viability assay. The class given is cell-based, human. To be noted: human, HEK293 cells. The protocol: (§1) Cell viability assays were conducted with HEK293 cells (ATCC) to investigate the compounds’ mammalian cytotoxicity. Cells were cultured according to standard protocols (DMEM, 10% FBS, 1× Penicillin/Streptomycin, 37 °C, 5% CO2). Cell viability was assessed using the Promega CellTiterGlo assay kit. Briefly, 1000 cells were seeded in white half a rea 96-well plates (Greiner) and incubated for 48 h with inhibitors from DMSO stocks (final: 0.1% DMSO) under standard cultivation conditions. Then, the cell titer reagent was added to each well according to the manufacturer’s protocols, and luminescence was measured using a Tecan Spark 10 M plate reader.
On the technique in general: In ATP-based viability assays light output follows the ATP content of the culture.

Another data set relates to HEK293 cells. As to the kind of experiment: Cell Titer Glo cell viability assay. Type of data set: cell-based, human. The following applies: 48 h. The protocol:
as §1

Setting [2] is: aptamer-based enzyme assay, read-out: IC50 S. aureus TrmD.

In turn, `O=c1[nH]cnc2[nH]cc(-c3cn(CC4CCC5C(CC4)C5(F)F)nn3)c12` (stereo not drawn) [Compound 8c, 5-(1-((8,8-Difluorobicyclo[5.1.0]octan-4-yl)methyl)-1H-1,2,3-triazol-4-yl)-3,7-dihydro-4H-pyrrolo[2,3-d]pyrimidin-4-one] registered a Kd on E. coli TrmD above 30 µM. The IC50 on S. aureus TrmD (setting [2]) worked out at 0.71 ± 0.1 µM. Further, the CC50 at 48 h in data set [1] is above 100 µM. Also, in the data set with HEK293 cells (at 100 μM), the “mammalian cytotoxicity HEK293” value is “Slight cytotoxic effects”.

Molecule `N#Cc1cccc(Cn2cc(-c3c[nH]c4nc[nH]c(=O)c34)nn2)c1` [Compound 8b, 3-((4-(4-Oxo-4,7-dihydro-3H-pyrrolo[2,3-d]pyrimidin-5-yl)-1H-1,2,3-triazol-1-yl)methyl)benzonitrile] gave a dissociation constant Kd at E. coli TrmD above 30 µM. Further, the IC50 on S. aureus TrmD (setting [2]) is 3.22 ± 1.8 µM. Moreover, the CC50 at 48 h in data set [1] was above 100 µM. The “mammalian cytotoxicity HEK293” value in the data set with HEK293 cells (at 100 μM) was “Slight cytotoxic effects”.

At E. coli TrmD, `N[C@@H]1CCC[C@@H]1Cn1cc(-c2c[nH]c3nc[nH]c(=O)c23)nn1` [Compound 8e, 5-(1-(((1R,2R)-2-Aminocyclopentyl)methyl)-1H-1,2,3-triazol-4-yl)-3,7-dihydro-4H-pyrrolo[2,3-d]pyrimidin-4-one] returned a Kd above 30 µM. Besides, the half-maximal inhibitory concentration (IC50) on S. aureus TrmD (setting [2]) worked out at 0.48 ± 0.06 µM. In data set [1], the CC50 at 48 h was above 100 µM. Besides, in the data set with HEK293 cells (at >10 μM), the “mammalian cytotoxicity HEK293” value is recorded as “Slight cytotoxic effects”.

Molecule `NC(N)=NCCn1cc(-c2c[nH]c3nc[nH]c(=O)c23)nn1` [Compound 8h] had a Kd on E. coli TrmD above 30 µM. The IC50 on S. aureus TrmD is 1.16 ± 0.12 µM. Also, in the data set with HEK293 cells (up to 100 μM), the “cell viability / mammalian cytotoxicity HEK293” value is listed as “no mammalian cytotoxicity”.

At E. coli TrmD, `O=c1[nH]cnc2[nH]cc(-c3cn(Cc4ccc5ncccc5c4)nn3)c12` [Compound 8d, 5-(1-(Quinolin-6-ylmethyl)-1H-1,2,3-triazol-4-yl)-3,7-dihydro-4H-pyrrolo[2,3-d]pyrimidin-4-one] registered a Kd above 30 µM. The 50% inhibitory concentration (IC50) on S. aureus TrmD (setting [2]) came out at 0.39 ± 0.07 µM. Moreover, in data set [1], the CC50 at 48 h was above 100 µM.
